This passage reports EC50 results from patent publication US9006228B2 (Merck Sharp & Dohme Corp., priority 2011, dated 2015).

For the test, the target named is T1, human GPR119 (Homo sapiens, UniProt Q8TDV5).
T1 sequence (Q8TDV5 1-308 limits assumed): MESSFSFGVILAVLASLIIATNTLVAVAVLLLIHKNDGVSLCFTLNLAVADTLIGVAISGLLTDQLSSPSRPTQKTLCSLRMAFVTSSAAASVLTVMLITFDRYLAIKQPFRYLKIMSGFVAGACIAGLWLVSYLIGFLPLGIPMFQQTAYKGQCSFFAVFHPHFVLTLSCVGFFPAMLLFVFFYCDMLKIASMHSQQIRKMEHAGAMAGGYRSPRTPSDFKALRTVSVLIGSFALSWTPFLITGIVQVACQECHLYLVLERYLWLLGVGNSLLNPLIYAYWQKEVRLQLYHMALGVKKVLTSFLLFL
Nature of the test: Measurement of GPR119 signaling (cAMP assay; LANCE kit or HTRF) in HEK293 cells stably transfected with human GPR119. The class given is cell-based. The following applies: agonist-stimulated cAMP in HEK293 cells expressing human GPR119. The method in brief: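 LANCE method: cAMP detected with Eu-chelate/biotin-cAMP tracer, 3 h, read at 665 nm, converted via cAMP standards; basal from DMSO, maximum from internal agonist, 4-parameter fit.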
`CCc1cnc(N2CCC([C@H]3C[C@H]3COCc3ccc(S(=O)(=O)CCO)cc3F)CC2)nc1` [Example 83] gave an EC50 of 21 nM. In the case of `CCCc1cnc(N2CCC([C@H]3C[C@H]3COCc3ccc(S(=O)(=O)CCO)cc3F)CC2)nc1` [Example 84] it was 1.3 nM; in that of `O=S(=O)(CCO)c1ccc(COC[C@@H]2C[C@@H]2C2CCN(c3ncc(-c4ccoc4)cn3)CC2)c(F)c1` [Example 85, 2-[(3-fluoro-4-{[((1R,2R)-2-{1-[5-(3-furyl)pyrimidin-2-yl]piperidin-4-yl}cyclopropyl)methoxy]methyl}phenyl)sulfonyl]ethanol], 3.8 nM; in that of `O=S(=O)(CCO)c1ccc(COC[C@@H]2C[C@@H]2C2CCN(c3ncc(Cl)cn3)CC2)nc1` [Example 86, 2-({6-[({(1R,2R)-2-[1-(5-chloropyrimidin-2-yl)piperidin-4-yl]cyclopropyl}methoxy)methyl]pyridin-3-yl}sulfonyl)ethanol], 22 nM.

For the compound `O=S(=O)(CCO)c1ccc(COC[C@@H]2C[C@@H]2C2CCN(c3ncc(Br)cn3)CC2)nc1` [Example 87, 2-({6-[({(1R,2R)-2-[1-(5-bromopyrimidin-2-yl)piperidin-4-yl]cyclopropyl}methoxy)methyl]pyridin-3-yl}sulfonyl)ethanol], the midpoint of the response, the EC50, lay at 10.7 nM. `CCc1cnc(N2CCC([C@H]3C[C@H]3COCc3ccc(S(=O)(=O)CCO)cn3)CC2)nc1` [Example 88, 2-({6-[({(1R,2R)-2-[1-(5-ethylpyrimidin-2-yl)piperidin-4-yl]cyclopropyl}methoxy)methyl]pyridin-3-yl}sulfonyl)ethanol] yielded an EC50 of 17 nM.

The compound `CCCc1cnc(N2CCC([C@H]3C[C@H]3COCc3ccc(S(=O)(=O)CCO)cn3)CC2)nc1` [Example 89, 2-({6-[({(1R,2R)-2-[1-(5-propylpyrimidin-2-yl)piperidin-4-yl]cyclopropyl}methoxy)methyl]pyridin-3-yl}sulfonyl)ethanol] displayed an EC50 of 10 nM. Compound `O=S(=O)(CCO)c1ccc(COC[C@@H]2C[C@@H]2C2CCN(c3ncc(C4CC4)cn3)CC2)nc1` [Example 90, 2-({6-[({(1R,2R)-2-[1-(5-cyclopropylpyrimidin-2-yl)piperidin-4-yl]cyclopropyl}methoxy)methyl]pyridin-3-yl}sulfonyl)ethanol] yielded an EC50 of 23 nM.

Take `CC(=O)CSc1ccc(COC[C@@H]2C[C@@H]2C2CCN(C(=O)OC(C)(C)C)CC2)cc1` [Example 91]: the EC50 turned out to be 14.9 nM.

In the case of `CC(C)(O)CSc1ccc(COC[C@@H]2C[C@@H]2C2CCN(C(=O)OC(C)(C)C)CC2)cc1` [Example 92], a half-maximal effect (EC50) was put at 20.3 nM.

`CC(O)CS(=O)(=O)c1ccc(COC[C@@H]2C[C@@H]2C2CCN(C(=O)OC(C)(C)C)CC2)cc1` (stereo partly drawn) [Example 94] gave a 50% effective concentration (EC50) of 9.5 nM. Compared with the last compound, the EC50 is about 2.1-fold lower.

For the compound `CC(O)CS(=O)(=O)c1ccc(COC[C@@H]2C[C@@H]2C2CCN(c3ncc(Cl)cn3)CC2)c(F)c1` (stereo partly drawn) [Example 95, 1-({4-[({(1R,2R)-2-[1-(5-chloropyrimidin-2-yl)piperidin-4-yl]cyclopropyll}methoxy)methyl]-3-fluorophenyl}sulfonyl)propan-2-ol], the EC50 stood at 2.4 nM. Consider `CC(O)CS(=O)(=O)c1ccc(COC[C@@H]2C[C@@H]2C2CCN(c3ncc(F)cn3)CC2)c(F)c1` (stereo partly drawn) [Example 96, 1-({4-[({(1R,2R)-2-[1-(5-fluoropyrimidin-2-yl)piperidin-4-yl]cyclopropyl}methoxy)methyl]-3-fluorophenyl}sulfonyl)propan-2-ol], for which it took 21.9 nM to reach a half-maximal effect (EC50).

In turn, `CC(O)CS(=O)(=O)c1ccc(COC[C@@H]2C[C@@H]2C2CCN(c3ncc(Br)cn3)CC2)c(F)c1` (stereo partly drawn) [Example 97, 1-({4-[({(1R,2R)-2-[1-(5-bromopyrimidin-2-yl)piperidin-4-yl]cyclopropyl}methoxy)methyl]-3-fluorophenyl}sulfonyl)propan-2-ol] showed an EC50 of 1.6 nM. Against the preceding compound, the EC50 is about 14-fold lower. The value for `CC(O)CS(=O)(=O)c1ccc(COC[C@@H]2C[C@@H]2C2CCN(c3cnc(Cl)cn3)CC2)c(F)c1` (stereo partly drawn) [Example 98, 1-({4-[({(1R,2R)-2-[1-(5-chloropyrazin-2-yl)piperidin-4-yl]cyclopropyl}methoxy)methyl]-3-fluorophenyl}sulfonyl)propan-2-ol] was 7.3 nM. In the case of `CCc1cnc(N2CCC([C@H]3C[C@H]3COCc3ccc(-c4cccnn4)cc3F)CC2)nc1` [Example 99, 3-{4-[({(1R,2R)-2-[1-(5-ethylpyrimidin-2-yl)piperidin-4-yl]cyclopropyl}methoxy)methyl]-3-fluorophenyl}pyridazine] it was 0.1 nM.

Regarding `CCc1cnc(N2CCC([C@H]3C[C@H]3COCc3ccc(-c4ccc(C)nn4)cc3F)CC2)nc1` [Example 100, 3-{4-[({(1R,2R)-2-[1-(5-ethylpyrimidin-2-yl)piperidin-4-yl]cyclopropyl}methoxy)methyl]-3-fluorophenyl}-6-methylpyridazine], a half-maximal response (EC50) required 1 nM. This EC50 lies about 10-fold higher than the previous one.

With `CCc1cnc(N2CCC([C@H]3C[C@H]3COCc3ccc(-c4ccc(OC)nn4)cc3F)CC2)nc1` [Example 101, 3-{4-[({(1R,2R)-2-[1-(5-ethylpyrimidin-2-yl)piperidin-4-yl]cyclopropyl}methoxy)methyl]-3-fluorophenyl}-6-methoxypyridazine], the concentration giving a half-maximal response (EC50) stood at 0.8 nM. With `CCc1cnc(N2CCC([C@H]3C[C@H]3COCc3ccc(-c4ccnnc4)cc3F)CC2)nc1` [Example 102, 4-{4-[({(1R,2R)-2-[1-(5-ethylpyrimidin-2-yl)piperidin-4-yl]cyclopropyl}methoxy)methyl]-3-fluorophenyl}pyridazine], it took 0.6 nM to reach a half-maximal effect (EC50). The EC50 values of the last two compounds are within 1.5-fold of each other. In the case of `CCc1cnc(N2CCC([C@H]3C[C@H]3COCc3ccc(-c4cnc(N)nc4)cc3F)CC2)nc1` [Example 103, 5-{4-[({(1R,2R)-2-[1-(5-ethylpyrimidin-2-yl)piperidin-4-yl]cyclopropyl}methoxy)methyl]-3-fluorophenyl}pyrimidin-2-amine] it was 2.5 nM; in that of `CCc1cnc(N2CCC([C@H]3C[C@H]3COCc3ccc(-c4cnc(OC)nc4)cc3F)CC2)nc1` [Example 104, 5-{4-[({(1R,2R)-2-[1-(5-ethylpyrimidin-2-yl)piperidin-4-yl]cyclopropyl}methoxy)methyl]-3-fluorophenyl}-2-methoxypyrimidine], 8.8 nM. The value for `CCc1cnc(N2CCC([C@H]3C[C@H]3COCc3ccc(-c4ccnc(N)n4)cc3F)CC2)nc1` [Example 105, 4-{4-[({(1R,2R)-2-[1-(5-ethylpyrimidin-2-yl)piperidin-4-yl]cyclopropyl}methoxy)methyl]-3-fluorophenyl}pyrimidin-2-amine] was 10.8 nM; that for `CCc1cnc(N2CCC([C@H]3C[C@H]3COCc3ccc(-c4ccnc(OC)n4)cc3F)CC2)nc1` [Example 106, 4-{4-[({(1R,2R)-2-[1-(5-ethylpyrimidin-2-yl)piperidin-4-yl]cyclopropyl}methoxy)methyl]-3-fluorophenyl}-2-methoxypyrimidine] was 2.9 nM.

In the case of `CCc1cnc(N2CCC([C@H]3C[C@H]3COCc3ccc(-c4nccnc4N)cc3F)CC2)nc1` [Example 107, 2-{4-[({(1R,2R)-2-[1-(5-ethylpyrimidin-2-yl)piperidin-4-yl]cyclopropyl}methoxy)methyl]-3-fluorophenyl}pyrazin-2-amine], the response was half-maximal at 2 nM (EC50). In turn, `CCc1cnc(N2CCC([C@H]3C[C@H]3COCc3ccc(-c4cncnc4)cc3F)CC2)nc1` [Example 108, 5-{4-[({(1R,2R)-2-[1-(5-ethylpyrimidin-2-yl)piperidin-4-yl]cyclopropyl}methoxy)methyl]-3-fluorophenyl}pyrimidine] yielded a concentration for a half-maximal effect (EC50) of 1.1 nM. The compound `CCc1cnc(N2CCC([C@H]3C[C@H]3COCc3ccc(-c4cnccn4)cc3F)CC2)nc1` [Example 109, 2-{4-[({(1R,2R)-2-[1-(5-ethylpyrimidin-2-yl)piperidin-4-yl]cyclopropyl}methoxy)methyl]-3-fluorophenyl}pyrazine] returned an EC50 of 2.3 nM. In the case of `CCc1cnc(N2CCC([C@H]3C[C@H]3COCc3ccc(-c4ccncn4)cc3F)CC2)nc1` [Example 110, 4-{4-[({(1R,2R)-2-[1-(5-ethylpyrimidin-2-yl)piperidin-4-yl]cyclopropyl}methoxy)methyl]-3-fluorophenyl}pyrimidine] it was 1.5 nM; in that of `CCc1cnc(N2CCC([C@H]3C[C@H]3COCc3ccc(-c4cnc(C)s4)cc3F)CC2)nc1` [Example 111, 5-ethyl-2-{4-[(1R,2R)-2-({[2-fluoro-4-(2-methyl-1,3-thiazol-5-yl)benzyl]oxy}methyl)cyclopropyl]piperidin-1-yl}pyrimidine], 4 nM; in that of `CCc1cnc(N2CCC([C@H]3C[C@H]3COCc3ccc(-c4ccncn4)c(F)c3)CC2)nc1` [Example 112, 4-{4-[({(1R,2R)-2-[1-(5-ethylpyrimidin-2-yl)piperidin-4-yl]cyclopropyl}methoxy)methyl]-2-fluorophenyl}pyrimidine], 3 nM. `CCc1cnc(N2CCC([C@H]3C[C@H]3COCc3ccc(-c4cncnc4)c(F)c3)CC2)nc1` [Example 113, 5-{4-[({(1R,2R)-2-[1-(5-ethylpyrimidin-2-yl)piperidin-4-yl]cyclopropyl}methoxy)methyl]-2-fluorophenyl}pyrimidine] came in with an EC50 of 2 nM. This EC50 is about 1.5-fold lower than that of the compound before.
